Test results as given in US6362134B1, “Herbicidal 1,2,4,6-thiatriazines” (Syngenta Investment Corporation, priority 1996, dated 2002).

What was measured:
Format in all cases: in vivo
[1] = tested on: Avena; experiment: Herbicidal action before emergence of the plants (pre-emergent action); conditions: 2000 g of active substance/ha, sprayed immediately after sowing, evaluated after 3 weeks, ratings scale of nine levels (1=complete damage, 9=no action)
Protocol: (§1) Monocotyledon and dicotyledon test plants are sown in standard soil in plastic pots. Immediately after sowing, the test substances are sprayed on (500 l of water/ha) in an aqueous suspension prepared from a 25% wettable powder (Example F3, b)), corresponding to a dosage of 2000 g of active substance/ha. The test plants are then grown under optimum conditions in a greenhouse. After a test period of 3 weeks, the test is evaluated with a ratings scale of nine levels (1=complete damage, 9=no action). Ratings of 1 to 4 (in particular 1 to 3) mean a good to very good herbicidal action.
(§2) Test plants: Avena, Setaria, Sinapis, Stellaria

[2] = tested on: Sinapis; experiment: Post-emergent herbicidal action (contact herbicide); parameters: key: 1=complete damage; 9=no action; Ratings of 1 to 4 (in particular 1 to 3) mean a good to very good herbicidal action; conditions: 2000 g of active substance/ha, sprayed in the 4- to 6-leaf stage, evaluated after about 18 days, ratings scale 1-9
Protocol: (§3) Monocotyledon and dicotyledon test plants are grown in plastic pots with standard soil in a greenhouse and, in the 4- to 6-leaf stage, are sprayed with an aqueous suspension of the test substances of the formula 1, prepared from a 25% wettable power (Example F3, b)), corresponding to a dosage of 2000 g of active substance/ha (500 l of water/ha). The test plants are then grown further in the greenhouse under optimum conditions. After a test period of about 18 days, the test is evaluated with a ratings scale of 9 levels (1=complete damage, 9=no action). Ratings of 1 to 4 (in particular 1 to 3) mean a good to very good herbicidal action.
(§4) Test plants: Sinapis, Stellaria

[3] = tested on: Stellaria; experiment: as above; parameters: key: 1=complete damage; 9=no action; Ratings of 1 to 4 (in particular 1 to 3) mean a good to very good herbicidal action; conditions: 2000 g of active substance/ha, sprayed in the 4- to 6-leaf stage, evaluated after about 18 days, ratings scale 1-9
Protocol: as §3, §4

[4] = tested on: Setaria; experiment: Herbicidal action before emergence of the plants (pre-emergent action); parameters: key: 1=complete damage; 9=no action; Ratings of 1 to 4 (in particular 1 to 3) mean a good to very good herbicidal action; conditions: 2000 g of active substance/ha, sprayed immediately after sowing, evaluated after 3 weeks, ratings scale of nine levels
Protocol: as §1, §2

[5] = tested on: Sinapis; experiment: as above; parameters: key: 1=complete damage; 9=no action; Ratings of 1 to 4 (in particular 1 to 3) mean a good to very good herbicidal action; conditions: 2000 g of active substance/ha, sprayed immediately after sowing, evaluated after 3 weeks, ratings scale of nine levels
Protocol: as §1, §2

[6] = tested on: Stellaria; experiment: as above; parameters: key: 1=complete damage; 9=no action; Ratings of 1 to 4 (in particular 1 to 3) mean a good to very good herbicidal action; conditions: 2000 g of active substance/ha, sprayed immediately after sowing, evaluated after 3 weeks, ratings scale of nine levels
Protocol: as §1, §2

Row | Compound | Pre-emergent action, rating, Avena [1] | Post-emergent action, rating, Sinapis [2] | Post-emergent action, rating, Stellaria [3] | Pre-emergent action, rating, Setaria [4] | Pre-emergent action, rating, Sinapis [5] | Pre-emergent action, rating, Stellaria [6]
1 | CC1CCC2C(CCN2S2=NC(N)=NC(Oc3c(F)c(F)c(F)c(F)c3F)=N2)C1 (stereo not drawn) [6.298] | 3 | 1 | 4 | 2 | 1 | 1
2 | CC1(C)CC2CC(C)(CN2S2=NC(N)=NC(Oc3c(F)c(F)c(F)c(F)c3F)=N2)C1 (single isomer, unassigned) [6.154] | 4 | 1 | 1 | 1 | 1 | 1
3 | CC1(C)CCCN(S2=NC(N)=NC(Oc3cc(F)ccc3F)=N2)C1 (stereo not drawn) [6.129] | 4 | 2 | 3 | 4 | 1 | 1
4 | CN(Cc1ccccc1)S1=NC(N)=NC(Oc2c(F)c(F)c(F)c(F)c2F)=N1 (stereo not drawn) [6.192] | 2 | 2 | 4 | 1 | 1 | 1
5 | CCCC(CC)OS1=NC(N)=NC(Oc2c(F)c(F)c(F)c(F)c2F)=N1 (stereo not drawn) [5.332] | 3 | 1 | 2 | 1 | 1 | 1
6 | NC1=NS(N2CCCCCCCC2)=NC(Oc2c(F)c(F)c(F)c(F)c2F)=N1 (stereo not drawn) [6.257] | 3 | 2 | 2 | 2 | 1 | 1
7 | NC1=NC(Oc2c(F)c(F)c(F)c(F)c2F)=NS(N2CCCCCC2)=N1 (stereo not drawn) [6.229] | 3 | 2 | 3 | 2 | 1 | 1
8 | CC1CN(S2=NC(N)=NC(Oc3c(F)c(F)c(F)c(F)c3F)=N2)CCC(C)(C)C1 (single isomer, unassigned) [6.92] | 4 | 1 | 1 | 1 | 1 | 1
9 | NC1=NS(N2CCCCCCCC2)=NC(Oc2c(F)c(F)cc(F)c2F)=N1 (stereo not drawn) [6.302] | 3 | 2 | 3 | 2 | 1 | 1
10 | CC1CC(C)CN(S2=NC(N)=NC(Oc3c(F)c(F)c(F)c(F)c3F)=N2)C1 (stereo not drawn) [6.124] | 3 | 2 | 3 | 1 | 1 | 1
11 | CC1(C)CCCN(S2=NC(N)=NC(Oc3c(F)c(F)c(F)c(F)c3F)=N2)C1 (stereo not drawn) [6.34] | 3 | 2 | 2 | 1 | 1 | 1
12 | NC1=NS(N2CCC[C@H]3CCCC[C@H]32)=NC(Oc2c(F)c(F)cc(F)c2F)=N1 (relative stereo) [6.331] | 4 | 1 | 2 | 2 | 1 | 1
13 | NC1=NC(Oc2cc(F)ccc2F)=NS(N2CCCC3CCCCC32)=N1 (stereo not drawn) [6.135] | 3 | 3 | 3 | 3 | 1 | 1
14 | NC1=NC(Oc2c(F)c(F)c(F)c(F)c2F)=NS(OC2CCCCCCC2)=N1 (stereo not drawn) [5.176] | 4 | 2 | 2 | 2 | 1 | 1
15 | CC1CC(OS2=NC(N)=NC(Oc3c(F)c(F)c(F)c(F)c3F)=N2)CC(C)(C)C1 (stereo not drawn) [5.78] | 3 | 2 | 3 | 2 | 2 | 1
16 | CC1CC(N(C)S2=NC(N)=NC(Oc3c(F)c(F)c(F)c(F)c3F)=N2)CC(C)(C)C1 (stereo not drawn) [6.194] | 7 | 2 | 4 | 5 | 2 | 2
17 | CCC1CCCCN1S1=NC(N)=NC(Oc2c(F)c(F)c(F)c(F)c2F)=N1 (stereo not drawn) [6.30] | 3 | 2 | 3 | 2 | 1 | 1
18 | CC1CCN(S2=NC(N)=NC(Oc3c(F)c(F)c(F)c(F)c3F)=N2)C2CCCCC12 (stereo not drawn) [6.285] | 5 | 2 | 3 | 2 | 1 | 1
19 | CC1(C)CCCC(OS2=NC(N)=NC(Oc3c(F)c(F)c(F)c(F)c3F)=N2)C1 (stereo not drawn) [5.131] | 4 | 1 | 3 | 2 | 1 | 1
20 | CC1CN(S2=NC(N)=NC(Oc3c(F)c(F)c(F)c(F)c3F)=N2)CCC(C)(C)C1 (single isomer, unassigned) [6.93] | 2 | 1 | 1 | 1 | 1 | 1
21 | NC1=NC(Oc2c(F)c(F)c(F)c(F)c2F)=NS(N2CCCC3CCCCC32)=N1 (stereo not drawn) [6.37] | 3 | 3 | 2 | 2 | 1 | 1
22 | NC1=NC(Oc2c(F)c(F)c(F)c(F)c2F)=NS(N2CCC[C@H]3CCC[C@H]32)=N1 (relative stereo) [6.27] | 4 | 2 | 3 | 3 | 2 | 1
23 | CC1CC(C)CC(OS2=NC(N)=NC(Oc3c(F)c(F)c(F)c(F)c3F)=N2)C1 (stereo not drawn) [5.120] | 4 | 2 | 3 | 2 | 1 | 1
24 | CCN(C1CC(C)CC(C)(C)C1)S1=NC(N)=NC(Oc2c(F)c(F)c(F)c(F)c2F)=N1 (stereo not drawn) [6.140] | 4 | 2 | 3 | 3 | 2 | 1
25 | CC(C)(C)C1CCC(OS2=NC(N)=NC(Oc3c(F)c(F)c(F)c(F)c3F)=N2)CC1 (stereo not drawn) [5.127] | 4 | 2 | 3 | 2 | 1 | 1
